Where two headings read alike, the source gives them in different places.
Assays:
human recombinant CA IV = human recombinant CA IV (Homo sapiens, UniProt P22748); assay: Fluorescent thermal shift assay (FTSA), binding to CA IV; conditions: Table 1; FTSA at 37° C. and pH 7.0; read-out: Dissociation constants, CA IV
human recombinant CA XIV = human recombinant CA XIV (Homo sapiens, UniProt Q9ULX7); assay: Fluorescent thermal shift assay (FTSA), binding to CA XIV; conditions: read-out: Dissociation constants, CA XIV
Sequence of human recombinant CA XIV (Q9ULX7 16-337): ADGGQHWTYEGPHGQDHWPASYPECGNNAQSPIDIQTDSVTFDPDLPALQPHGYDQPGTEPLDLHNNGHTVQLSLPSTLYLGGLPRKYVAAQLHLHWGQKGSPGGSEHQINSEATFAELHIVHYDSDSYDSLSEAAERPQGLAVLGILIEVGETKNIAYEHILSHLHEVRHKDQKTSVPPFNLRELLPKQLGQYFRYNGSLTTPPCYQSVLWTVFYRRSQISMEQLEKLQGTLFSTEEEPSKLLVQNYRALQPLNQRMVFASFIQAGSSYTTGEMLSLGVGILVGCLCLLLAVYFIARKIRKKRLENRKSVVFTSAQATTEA

human recombinant CA III = human recombinant CA III (Homo sapiens, UniProt P07451); assay: Fluorescent thermal shift assay (FTSA), binding to CA III; conditions: Table 1; FTSA at 37° C. and pH 7.0; read-out: Dissociation constants, CA III
Sequence of human recombinant CA III (P07451 whole entry): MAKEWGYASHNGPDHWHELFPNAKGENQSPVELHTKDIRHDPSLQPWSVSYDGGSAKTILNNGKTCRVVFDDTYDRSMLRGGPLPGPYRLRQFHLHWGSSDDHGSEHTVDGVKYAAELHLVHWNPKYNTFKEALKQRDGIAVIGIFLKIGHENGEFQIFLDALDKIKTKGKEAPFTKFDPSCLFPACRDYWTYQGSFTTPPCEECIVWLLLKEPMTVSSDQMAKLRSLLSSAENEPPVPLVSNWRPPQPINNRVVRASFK

human recombinant CA VI = human recombinant CA VI (Homo sapiens, UniProt P23280); assay: Fluorescent thermal shift assay (FTSA), binding to CA VI; conditions: Table 1; FTSA at 37° C. and pH 7.0; read-out: Dissociation constants, CA VI
Sequence of human recombinant CA VI (P23280 18-308): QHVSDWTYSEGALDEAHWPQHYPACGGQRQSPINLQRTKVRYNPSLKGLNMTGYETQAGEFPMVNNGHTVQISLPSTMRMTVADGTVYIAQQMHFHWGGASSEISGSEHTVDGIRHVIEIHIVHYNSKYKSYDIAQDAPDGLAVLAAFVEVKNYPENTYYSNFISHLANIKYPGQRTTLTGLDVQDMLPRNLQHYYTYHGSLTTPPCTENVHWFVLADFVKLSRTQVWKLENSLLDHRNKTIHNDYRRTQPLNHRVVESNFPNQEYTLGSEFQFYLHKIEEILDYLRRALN

human recombinant CA IX = human recombinant CA IX (Homo sapiens, UniProt Q16790); assay: Fluorescent thermal shift assay (FTSA), binding to CA IX; conditions: read-out: Dissociation constants, CA IX
human recombinant CA VA = human recombinant CA VA (Homo sapiens, UniProt P35218); assay: Fluorescent thermal shift assay (FTSA), binding to CA VA; conditions: Table 1; FTSA at 37° C. and pH 7.0; read-out: Dissociation constants, CA VA
Sequence of human recombinant CA VA (P35218 39-305): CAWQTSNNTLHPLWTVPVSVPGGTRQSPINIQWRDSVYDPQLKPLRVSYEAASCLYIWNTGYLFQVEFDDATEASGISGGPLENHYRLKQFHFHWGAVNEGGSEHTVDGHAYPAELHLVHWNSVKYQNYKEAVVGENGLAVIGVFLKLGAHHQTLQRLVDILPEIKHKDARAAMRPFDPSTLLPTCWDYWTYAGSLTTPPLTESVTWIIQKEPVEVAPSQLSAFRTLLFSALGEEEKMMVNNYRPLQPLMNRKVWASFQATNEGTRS

human recombinant CA VII = human recombinant CA VII (Homo sapiens, UniProt P43166); assay: Fluorescent thermal shift assay (FTSA), binding to CA VII; conditions: Table 1; FTSA at 37° C. and pH 7.0; read-out: Dissociation constants, CA VII
Sequence of human recombinant CA VII (P43166 whole entry): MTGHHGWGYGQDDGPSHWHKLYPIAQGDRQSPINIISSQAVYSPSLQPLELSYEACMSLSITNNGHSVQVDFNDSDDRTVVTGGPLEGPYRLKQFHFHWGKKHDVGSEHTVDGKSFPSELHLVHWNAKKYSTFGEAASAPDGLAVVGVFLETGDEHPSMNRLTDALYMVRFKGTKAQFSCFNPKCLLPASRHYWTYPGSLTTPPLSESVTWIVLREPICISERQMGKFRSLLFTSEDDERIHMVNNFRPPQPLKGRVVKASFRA

human recombinant CA VB = human recombinant CA VB (Homo sapiens, UniProt Q9Y2D0); assay: Fluorescent thermal shift assay (FTSA), binding to CA VB; conditions: Table 1; FTSA at 37° C. and pH 7.0; read-out: Dissociation constants, CA VB
Sequence of human recombinant CA VB (Q9Y2D0 34-317): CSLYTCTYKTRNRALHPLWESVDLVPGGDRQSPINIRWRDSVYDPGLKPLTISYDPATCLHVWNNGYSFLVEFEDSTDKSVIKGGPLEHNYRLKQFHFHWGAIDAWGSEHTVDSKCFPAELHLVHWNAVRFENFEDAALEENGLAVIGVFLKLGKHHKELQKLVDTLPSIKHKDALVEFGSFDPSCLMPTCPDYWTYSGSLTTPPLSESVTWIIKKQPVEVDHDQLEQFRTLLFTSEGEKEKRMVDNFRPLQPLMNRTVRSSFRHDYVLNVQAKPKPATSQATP

[1] = molecular target: human recombinant CA XIII (Homo sapiens, UniProt Q8N1Q1); assay: Fluorescent thermal shift assay (FTSA), binding to CA XIII; conditions: Table 1; FTSA at 37° C. and pH 7.0; read-out: Dissociation constants, CA XIII
Sequence of human recombinant CA XIII (Q8N1Q1 whole entry): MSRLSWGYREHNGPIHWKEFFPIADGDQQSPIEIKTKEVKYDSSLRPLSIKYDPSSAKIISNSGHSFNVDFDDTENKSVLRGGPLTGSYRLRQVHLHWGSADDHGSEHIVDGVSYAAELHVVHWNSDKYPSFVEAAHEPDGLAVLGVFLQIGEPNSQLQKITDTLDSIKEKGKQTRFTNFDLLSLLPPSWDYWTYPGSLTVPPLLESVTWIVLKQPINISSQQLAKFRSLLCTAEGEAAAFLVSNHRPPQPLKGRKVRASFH

human recombinant CA XII = human recombinant CA XII (Homo sapiens, UniProt O43570); assay: Fluorescent thermal shift assay (FTSA), binding to CA XII; conditions: read-out: Dissociation constants, CA XII
Sequence of human recombinant CA XII (O43570 25-354): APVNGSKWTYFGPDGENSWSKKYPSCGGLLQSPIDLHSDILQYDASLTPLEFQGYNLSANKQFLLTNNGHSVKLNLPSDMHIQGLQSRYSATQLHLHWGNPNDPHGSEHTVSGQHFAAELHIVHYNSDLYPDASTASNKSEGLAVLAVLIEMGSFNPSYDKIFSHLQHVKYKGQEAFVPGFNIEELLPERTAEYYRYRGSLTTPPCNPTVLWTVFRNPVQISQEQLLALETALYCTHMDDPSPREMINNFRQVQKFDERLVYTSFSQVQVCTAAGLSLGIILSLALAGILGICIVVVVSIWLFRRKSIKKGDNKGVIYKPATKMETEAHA

human recombinant CA I = human recombinant CA I (Homo sapiens, UniProt P00915); assay: Fluorescent thermal shift assay (FTSA), binding to CA I; conditions: Table 3; FTSA at 37° C., pH 7.0; read-out: Dissociation constants, CA I
Sequence of human recombinant CA I (P00915 whole entry): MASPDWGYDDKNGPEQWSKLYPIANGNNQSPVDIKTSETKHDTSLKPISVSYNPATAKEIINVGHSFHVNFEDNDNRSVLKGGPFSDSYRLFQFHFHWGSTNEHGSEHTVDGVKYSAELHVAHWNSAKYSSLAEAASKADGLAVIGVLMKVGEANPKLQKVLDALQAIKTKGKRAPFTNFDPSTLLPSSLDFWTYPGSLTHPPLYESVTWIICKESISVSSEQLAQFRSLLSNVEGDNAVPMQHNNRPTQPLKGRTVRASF

human recombinant CA II = human recombinant CA II (Homo sapiens, UniProt P00918); assay: Fluorescent thermal shift assay (FTSA), binding to CA II; conditions: read-out: Dissociation constants, CA II
[2] = Table 1, FTSA at 37° C. and pH 7.0
[3] = Table 3, FTSA at 37° C., pH 7.0

Sequence of human recombinant CA IV (P22748 19-284): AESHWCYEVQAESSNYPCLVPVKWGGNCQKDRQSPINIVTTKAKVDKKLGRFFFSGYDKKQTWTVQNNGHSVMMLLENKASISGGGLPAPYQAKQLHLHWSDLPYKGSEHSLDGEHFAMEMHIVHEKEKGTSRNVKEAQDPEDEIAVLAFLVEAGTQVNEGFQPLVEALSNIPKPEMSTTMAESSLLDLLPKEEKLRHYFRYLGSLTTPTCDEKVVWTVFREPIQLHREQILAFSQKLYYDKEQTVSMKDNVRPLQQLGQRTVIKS

Kd (human recombinant CA XIV; [2]) [nM] | Kd (human recombinant CA IX; [2]) [nM] | Kd (human recombinant CA VA) [nM] | Kd (human recombinant CA VII) [nM] | Kd [1] [nM] | Kd (human recombinant CA I) [nM] | Kd (human recombinant CA XII; [3]) [nM] | Kd (human recombinant CA IX; [3]) [nM] | Kd (human recombinant CA II; [3]) [nM] | Compound | also measured
 |  |  |  |  | 10000 | 6.7 |  |  | COC(=O)c1cc(S(N)(=O)=O)c(Cl)cc1Sc1ccccc1 [Compound 14a, methyl 4-chloro-2-phenylsulfanyl-5-sulfamoyl-benzoate] | 
 |  |  |  |  | 17000 | 33 | 0.3 | 250 | COC(=O)c1cc(S(N)(=O)=O)c(Cl)cc1SC1CCCCC1 [Compound 14b, methyl 4-chloro-2-cyclohexylsulfanyl-5-sulfamoyl-benzoate] | 
 |  |  |  |  | 6900 | 22 | 2.9 | 110 | COC(=O)c1cc(S(N)(=O)=O)c(Cl)cc1SCc1ccccc1 [Compound 14c, methyl 2-benzylsulfanyl-4-chloro-5-sulfamoyl-benzoate] | 
 |  |  |  |  | 13000 | 53 | 13 | 170 | COC(=O)c1cc(S(N)(=O)=O)c(Cl)cc1SCCc1ccccc1 [Compound 14d, methyl 4-chloro-2-phenethylsulfanyl-5-sulfamoyl-benzoate] | 

The next lines start with the compound.

Compound | Kd (human recombinant CA XIV; [2]) [nM] | Kd (human recombinant CA IX; [2]) [nM] | Kd (human recombinant CA VA) [nM] | Kd (human recombinant CA VII) [nM] | Kd [1] [nM] | Kd (human recombinant CA I) [nM] | Kd (human recombinant CA XII; [3]) [nM] | Kd (human recombinant CA IX; [3]) [nM] | Kd (human recombinant CA II; [3]) [nM] | also measured
2,4-dichloro-5-[2-(5-methoxybenzimidazol-1-yl)acetyl]benzenesulfonamide and 2,4-dichloro-5-[2-(6-methoxybenzimidazol-1-yl)acetyl]benzenesulfonamide [Compound 31] | 40 | 400 | 6 | 300 | 600 |  |  |  |  | Kd (human recombinant CA IV): 1400 nM; Kd (human recombinant CA III): 40000 nM; Kd (human recombinant CA VI): 1800 nM; Kd (human recombinant CA VB): 700 nM; Kd (human recombinant CA XII; [2]): 2800 nM
NS(=O)(=O)c1cc(C(=O)Cn2cnc3ccccc32)ccc1Cl [Compound 19, 5-[2-(benzimidazol-1-yl)acetyl]-2-chloro-benzenesulfonamide] | 50 |  | 0.3 |  | 800 |  |  |  |  | Kd (human recombinant CA IV): 600 nM; Kd (human recombinant CA III): > 200000 nM; Kd (human recombinant CA VI): 700 nM
Cc1cc2ncn(CC(=O)c3ccc(Cl)c(S(N)(=O)=O)c3)c2cc1C [Compound 20, 2-chloro-5-[2-(5,6-dimethylbenzimidazol-1-yl)acetyl]benzenesulfonamide] | 50 | 600 | 0.8 |  | 800 |  |  |  |  | Kd (human recombinant CA XII; [2]): 3100 nM; Kd (human recombinant CA II; [2]): 600 nM
NS(=O)(=O)c1cc(C(=O)Cn2cnc3ccccc32)c(Cl)cc1Cl [Compound 29, 5-[2-(benzimidazol-1-yl)acetyl]-2,4-dichloro-benzenesulfonamide] | 20 | 400 | 2 | 100 | 700 |  |  |  |  | 
Cc1cc2ncn(CC(=O)c3cc(S(N)(=O)=O)c(Cl)cc3Cl)c2cc1C [Compound 30, 2,4-dichloro-5-[2-(5,6-dimethylbenzimidazol-1-yl)acetyl]benzenesulfonamide] | 300 |  | 5 | 700 |  |  |  |  |  | Kd (human recombinant CA II; [2]): 500 nM
COC(=O)c1cc(S(N)(=O)=O)c(Cl)cc1S(=O)(=O)c1ccccc1 [Compound 42a, methyl 2-(benzenesulfonyl)-4-chloro-5-sulfamoyl-benzoate] |  |  |  |  |  |  |  |  |  | Kd (human recombinant CA XIV; Table 2, FTSA at 37° C., pH 7.0): 0.03 nM
